Source: US10087148B2, “Quinazolines as biogenic amine transport modulators” (THE UNITED STATES OF AMERICA AS REPRESENTED BY THE …, priority 2014, dated 2018)

What follows are compounds tested against T1, dopamine transporter (DAT) (Rattus norvegicus (Rat), UniProt P23977) (assay: [3H]dopamine (DA) uptake inhibition in rat brain (caudate) synaptosomes). Settings: mean ± S.D.; n = 3; read-out: DAT Uptake Emax.
T1 sequence (P23977 whole entry): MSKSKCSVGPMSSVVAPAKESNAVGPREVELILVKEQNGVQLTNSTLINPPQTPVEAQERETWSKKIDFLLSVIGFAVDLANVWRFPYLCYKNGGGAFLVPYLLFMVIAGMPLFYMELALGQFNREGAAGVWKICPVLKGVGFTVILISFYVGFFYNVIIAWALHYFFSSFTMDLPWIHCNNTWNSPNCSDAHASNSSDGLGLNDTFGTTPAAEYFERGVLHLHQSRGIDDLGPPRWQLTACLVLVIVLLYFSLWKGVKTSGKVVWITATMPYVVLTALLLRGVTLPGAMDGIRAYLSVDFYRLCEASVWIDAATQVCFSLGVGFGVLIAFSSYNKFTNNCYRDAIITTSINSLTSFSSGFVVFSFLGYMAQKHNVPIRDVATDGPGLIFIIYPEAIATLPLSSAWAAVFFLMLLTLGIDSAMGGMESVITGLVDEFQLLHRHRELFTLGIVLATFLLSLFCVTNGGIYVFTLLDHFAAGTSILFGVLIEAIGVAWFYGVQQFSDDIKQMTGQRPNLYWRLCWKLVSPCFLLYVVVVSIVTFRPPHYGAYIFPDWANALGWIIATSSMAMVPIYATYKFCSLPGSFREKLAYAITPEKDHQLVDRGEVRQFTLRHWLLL
Format: biochemical
`Cc1cc2nccn2cc1-c1nc(NCC(c2ccccc2)c2ccccc2)c2ccccc2n1` [SRI-30827] was tested, and the Emax was 63 ± 2%.
In the case of `Cc1cc2nccn2cc1-c1nc(NCC(c2ccccc2)c2ccc[nH]2)c2ccccc2n1` (stereo not drawn) [SRI-31040], the Emax is reported as 69 ± 1%.
`Cc1cc2nccn2cc1-c1nc(NCC(c2ccccc2)c2ccncc2)c2ccccc2n1` (stereo not drawn) [SRI-31142] gave an Emax of 72 ± 2%.
Work on `Cc1cc2nccn2cc1-c1nc(NCC(O)(c2ccccc2)c2ccccc2)c2ccccc2n1` [SRI-31143] yielded an Emax of 69 ± 1%.

Same assay, conditions: read-out: DAT Uptake Emax
With `Cl.Fc1ccc2c(NCC(c3ccccc3)c3ccccc3)nc(-c3ccc4nccn4c3)nc2c1` [SRI-31034] the Emax was 69 ± 1%.

Same assay, conditions: read-out: Emax for DAT Uptake Inhibition
`Cl.Fc1ccc2c(NCC(c3ccccc3)c3ccccc3)nc(-c3ccc4nccn4c3)nc2c1` [SRI-31034] showed an Emax of 69%.

Same assay, conditions: values in Table 9; read-out: Emax for DAT Uptake Inhibition
`Cc1cc2nccn2cc1-c1nc(NCC(c2ccccc2)c2ccccc2)c2ccccc2n1` [SRI-30827] was tested, and the Emax was 63%.
With `Cc1cc2nccn2cc1-c1nc(NCC(c2ccccc2)c2ccc[nH]2)c2ccccc2n1` (stereo not drawn) [SRI-31040] the Emax was 69%.
Work on `Cc1cc2nccn2cc1-c1nc(NCC(c2ccccc2)c2ccncc2)c2ccccc2n1` (stereo not drawn) [SRI-31142] yielded an Emax of 72%.
`Cc1cc2nccn2cc1-c1nc(NCC(O)(c2ccccc2)c2ccccc2)c2ccccc2n1` [SRI-31143] showed an Emax of 67%.

Each compound was assayed against T1, dopamine transporter (DAT) (assay: Dopamine transporter-mediated [3H]MPP+ release (d-amphetamine-induced, shift experiments) in rat caudate synaptosomes). Settings: [3H]MPP+ release; [Blocker]/((EC50-2/EC50-1) − 1).
Format: biochemical
For `Cc1cc2nccn2cc1-c1nc(NCC(c2ccccc2)c2ccccc2)c2ccccc2n1` [SRI-30827], the “Apparent Kc” value was 267 nM.
`Cl.Fc1ccc2c(NCC(c3ccccc3)c3ccccc3)nc(-c3ccc4nccn4c3)nc2c1` [SRI-31034] was tested, and the “Apparent Kc” value was 3200 nM.
In the case of `Cc1cc2nccn2cc1-c1nc(NCC(c2ccccc2)c2ccc[nH]2)c2ccccc2n1` (stereo not drawn) [SRI-31040], the “Apparent Kc” value is reported as 55 nM.
In the case of `Cc1cc2nccn2cc1-c1nc(NCC(c2ccccc2)c2ccncc2)c2ccccc2n1` (stereo not drawn) [SRI-31142], the “Apparent Kc” value is reported as 400 nM.
With `Cc1cc2nccn2cc1-c1nc(NCC(O)(c2ccccc2)c2ccccc2)c2ccccc2n1` [SRI-31143] the “Apparent Kc” value was 46 nM.

Same assay, conditions: read-out: d-Amphetamine Emax in presence of blocker
In the case of `Cl.Fc1ccc2c(NCC(c3ccccc3)c3ccccc3)nc(-c3ccc4nccn4c3)nc2c1` [SRI-31034], the Emax is reported as 104 ± 5%.

Same assay, conditions: read-out: d-Amphetamine Emax in presence of blocker; [3H]MPP+ release; blocker concentration per row; mean ± S.D.; n = 3
Work on `Cc1cc2nccn2cc1-c1nc(NCC(c2ccccc2)c2ccccc2)c2ccccc2n1` [SRI-30827] yielded an Emax of 104 ± 3%.
`Cc1cc2nccn2cc1-c1nc(NCC(c2ccccc2)c2ccc[nH]2)c2ccccc2n1` (stereo not drawn) [SRI-31040] gave an Emax of 105 ± 3%.
Work on `Cc1cc2nccn2cc1-c1nc(NCC(c2ccccc2)c2ccncc2)c2ccccc2n1` (stereo not drawn) [SRI-31142] yielded an Emax of 103 ± 3%.
For `Cc1cc2nccn2cc1-c1nc(NCC(O)(c2ccccc2)c2ccccc2)c2ccccc2n1` [SRI-31143], the Emax was 104 ± 4%.

What follows are compounds tested against DAT (Rattus norvegicus (Rat), UniProt P23977) (assay: Inhibition of [3H]WIN35428 binding to rat caudate DAT). Settings: [3H]WIN35428; mean ± S.D.; n = 3.
Chain of DAT (P23977 whole entry): as above
Experimental: All of the test compounds were synthesized as described herein. […] The data from three experiments were pooled and fit to a dose-response curve equation (using KaleidaGraph; Synergy Software, Reading, Pa.) to yield an Emax and IC50 value. […] Selected compounds were also tested for their ability to inhibit [^3H]WIN35428 binding to rat caudate DAT.
`Cc1cc2nccn2cc1-c1nc(NCC(c2ccccc2)c2ccccc2)c2ccccc2n1` [SRI-30827] was tested, and the Emax was 79 ± 3%.
In the case of `Cl.Fc1ccc2c(NCC(c3ccccc3)c3ccccc3)nc(-c3ccc4nccn4c3)nc2c1` [SRI-31034], the “DAT Binding Emax” value is reported as “Inactive”.
With `Cc1cc2nccn2cc1-c1nc(NCC(c2ccccc2)c2ccc[nH]2)c2ccccc2n1` (stereo not drawn) [SRI-31040] the Emax was 91 ± 7%.
With `Cc1cc2nccn2cc1-c1nc(NCC(c2ccccc2)c2ccncc2)c2ccccc2n1` (stereo not drawn) [SRI-31142] the Emax was 92 ± 4%.
Compound `Cc1cc2nccn2cc1-c1nc(NCC(O)(c2ccccc2)c2ccccc2)c2ccccc2n1` [SRI-31143] has an Emax of 52 ± 8%.

Same assay, conditions: [3H]WIN35428; mean ± S.D.; n = 3; unit as printed in head (text gives 1100 nM where table prints 1.1)
`Cc1cc2nccn2cc1-c1nc(NCC(c2ccccc2)c2ccccc2)c2ccccc2n1` [SRI-30827] gave an IC50 of 1990 ± 330 nM.
For `Cl.Fc1ccc2c(NCC(c3ccccc3)c3ccccc3)nc(-c3ccc4nccn4c3)nc2c1` [SRI-31034], the “DAT Binding IC50” value was “Inactive”.
Work on `Cc1cc2nccn2cc1-c1nc(NCC(c2ccccc2)c2ccc[nH]2)c2ccccc2n1` (stereo not drawn) [SRI-31040] yielded an IC50 of 3740 ± 1100 nM.
`Cc1cc2nccn2cc1-c1nc(NCC(c2ccccc2)c2ccncc2)c2ccccc2n1` (stereo not drawn) [SRI-31142] gave an IC50 of 2340 ± 450 nM.
For `Cc1cc2nccn2cc1-c1nc(NCC(O)(c2ccccc2)c2ccccc2)c2ccccc2n1` [SRI-31143], the IC50 was 3390 ± 1990 nM.

The compounds below were run against serotonin transporter (SERT) (Rattus norvegicus (Rat), UniProt P31652) (assay: [3H]serotonin (5-HT) uptake inhibition in rat brain synaptosomes). Settings: mean ± S.D.; n = 3; read-out: SERT Uptake Emax.
Chain of serotonin transporter (SERT) (P31652 whole entry): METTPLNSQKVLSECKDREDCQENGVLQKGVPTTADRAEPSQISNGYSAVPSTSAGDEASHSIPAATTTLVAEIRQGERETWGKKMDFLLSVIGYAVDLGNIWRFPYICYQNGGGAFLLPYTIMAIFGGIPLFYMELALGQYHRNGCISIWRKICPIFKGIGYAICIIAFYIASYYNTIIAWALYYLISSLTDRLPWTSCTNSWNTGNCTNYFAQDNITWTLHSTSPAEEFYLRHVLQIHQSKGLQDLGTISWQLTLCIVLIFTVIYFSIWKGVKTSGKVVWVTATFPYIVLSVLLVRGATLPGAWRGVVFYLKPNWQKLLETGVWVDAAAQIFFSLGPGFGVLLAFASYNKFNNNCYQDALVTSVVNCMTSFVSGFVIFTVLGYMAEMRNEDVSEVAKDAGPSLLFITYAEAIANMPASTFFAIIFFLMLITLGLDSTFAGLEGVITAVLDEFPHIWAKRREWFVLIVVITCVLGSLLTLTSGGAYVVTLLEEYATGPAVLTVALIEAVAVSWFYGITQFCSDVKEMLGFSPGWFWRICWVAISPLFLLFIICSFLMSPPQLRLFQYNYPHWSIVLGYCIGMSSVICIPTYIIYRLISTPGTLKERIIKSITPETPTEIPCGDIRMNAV
Format: biochemical
Experimental: Uptake inhibition assay for the serotonin transporter was conducted in rat brain synaptosomes as described elsewhere with minor modifications (Rothman et al., Synapse 39, 32-41 (2001)). Freshly removed whole brain minus cerebellum and caudate was homogenized in 10% ice-cold sucrose with 12 strokes of a hand-held Potter-Elvehjem homogenizer followed by centrifugation at 1000×g for 10 min. The supernatants were saved on ice and used immediately. Transporter activity at SERT was assessed using 5 nM [^3H]serotonin. The assay buffer was Krebs-phosphate buffer containing 154.4 mM NaCl, 2.9 mM KCl, 1.1 mM CaCl2, 0.83 mM MgCl2, 5 mM glucose, 1 mg/mL ascorbic acid, and 50 μM pargyline. […] Uptake inhibition assays were conducted at 25° C. and were initiated by adding 100 μL of tissue to 900 μL assay buffer containing test drug and [^3H]serotonin. Test drugs were diluted in assay buffer containing 1 mg/mL bovine serum albumin. Nonspecific uptake was measured by incubating in the presence of 10 μM indatraline. The reactions were stopped after 30 min by rapid vacuum filtration with a cell harvester (BRANDEL) over GF/B filters (Whatman) presoaked in wash buffer maintained at 25° C. (10 mM Tris-HCl, pH 7.4/150 mM NaCl). Filters were rinsed with 6 mL wash buffer and retained tritium was quantified by a MicroBeta liquid scintillation counter (PerkinElmer) after overnight extraction in 0.6 mL of liquid scintillation cocktail (Cytoscint, ICN). The data from three experiments were pooled and fit to a dose-response curve equation (using Kaleidagraph), to yield an Emax and EC50 value.
For `Cc1cc2nccn2cc1-c1nc(NCC(c2ccccc2)c2ccccc2)c2ccccc2n1` [SRI-30827], the Emax was 58 ± 3%.
In the case of `Cc1cc2nccn2cc1-c1nc(NCC(c2ccccc2)c2ccc[nH]2)c2ccccc2n1` (stereo not drawn) [SRI-31040], the Emax is reported as 54 ± 2%.
In the case of `Cc1cc2nccn2cc1-c1nc(NCC(c2ccccc2)c2ccncc2)c2ccccc2n1` (stereo not drawn) [SRI-31142], the Emax is reported as 48 ± 1%.
With `Cc1cc2nccn2cc1-c1nc(NCC(O)(c2ccccc2)c2ccccc2)c2ccccc2n1` [SRI-31143] the Emax was 51 ± 2%.

Same assay, conditions: read-out: SERT Uptake Emax
Compound `Cl.Fc1ccc2c(NCC(c3ccccc3)c3ccccc3)nc(-c3ccc4nccn4c3)nc2c1` [SRI-31034] has an Emax of 49 ± 2%.

What follows are compounds tested against norepinephrine transporter (NET) (Rattus norvegicus, UniProt Q63380) (assay: [3H]norepinephrine (NE) uptake inhibition in rat brain synaptosomes). Settings: read-out: NET Uptake Emax.
Chain of norepinephrine transporter (NET) (Q63380 1-617): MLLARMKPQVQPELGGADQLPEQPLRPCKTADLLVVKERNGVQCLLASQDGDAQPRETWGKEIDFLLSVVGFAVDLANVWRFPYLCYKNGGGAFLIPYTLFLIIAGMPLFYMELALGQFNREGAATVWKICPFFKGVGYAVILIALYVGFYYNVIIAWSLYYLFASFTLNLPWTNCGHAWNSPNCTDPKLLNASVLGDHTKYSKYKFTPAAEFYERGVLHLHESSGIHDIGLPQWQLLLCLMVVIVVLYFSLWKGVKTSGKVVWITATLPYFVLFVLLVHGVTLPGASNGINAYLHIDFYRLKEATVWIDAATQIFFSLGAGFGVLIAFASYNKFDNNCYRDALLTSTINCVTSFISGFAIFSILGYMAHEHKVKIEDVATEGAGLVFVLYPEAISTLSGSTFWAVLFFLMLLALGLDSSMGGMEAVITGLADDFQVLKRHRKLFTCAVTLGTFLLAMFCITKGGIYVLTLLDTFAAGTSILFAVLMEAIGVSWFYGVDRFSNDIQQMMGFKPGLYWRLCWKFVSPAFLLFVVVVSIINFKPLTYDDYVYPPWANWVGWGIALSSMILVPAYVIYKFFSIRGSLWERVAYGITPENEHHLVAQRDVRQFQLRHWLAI
Format: biochemical
Experimental: Uptake inhibition assay for the norepinephrine transporter was conducted in rat brain synaptosomes as described elsewhere with minor modifications (Rothman et al., Synapse 39, 32-41 (2001)). Freshly removed whole brain minus cerebellum and caudate was homogenized in 10% ice-cold sucrose with 12 strokes of a hand-held Potter-Elvehjem homogenizer followed by centrifugation at 1000×g for 10 minutes. The supernatants were saved on ice and used immediately. Transporter activity at NET was assessed using 10 nM [^3H]norepinephrine. The assay buffer was Krebs-phosphate buffer containing 154.4 mM NaCl, 2.9 mM KCl, 1.1 mM CaCl2, 0.83 mM MgCl2, 5 mM glucose, 1 mg/mL ascorbic acid, and 50 μM pargyline. […] Uptake inhibition assays were conducted at 37° C. and were initiated by adding 100 μL of tissue to 900 μL assay buffer containing test drug and [^3H]norepinephrine. Test drugs were diluted in assay buffer containing 1 mg/mL bovine serum albumin. Nonspecific uptake was measured by incubating in the presence of 10 μM indatraline. The reactions were stopped after 10 minutes by rapid vacuum filtration with a cell harvester (BRANDEL) over GF/B filters (Whatman) presoaked in wash buffer maintained at 25° C. (10 mM Tris-HCl, pH 7.4/150 mM NaCl). Filters were rinsed with 6 mL wash buffer and retained tritium was quantified by a MicroBeta liquid scintillation counter (PerkinElmer) after overnight extraction in 0.6 mL of liquid scintillation cocktail (Cytoscint, ICN). The data from three experiments were pooled and fit to a dose-response curve equation (using Kaleidagraph), to yield an Emax and EC50 value.
In the case of `Cc1cc2nccn2cc1-c1nc(NCC(c2ccccc2)c2ccccc2)c2ccccc2n1` [SRI-30827], the Emax is reported as 67 ± 3%.
Work on `Cl.Fc1ccc2c(NCC(c3ccccc3)c3ccccc3)nc(-c3ccc4nccn4c3)nc2c1` [SRI-31034] yielded an Emax of 63 ± 3%.
Work on `Cc1cc2nccn2cc1-c1nc(NCC(c2ccccc2)c2ccc[nH]2)c2ccccc2n1` (stereo not drawn) [SRI-31040] yielded an Emax of 70 ± 4%.
Work on `Cc1cc2nccn2cc1-c1nc(NCC(c2ccccc2)c2ccncc2)c2ccccc2n1` (stereo not drawn) [SRI-31142] yielded an Emax of 61 ± 2%.
In the case of `Cc1cc2nccn2cc1-c1nc(NCC(O)(c2ccccc2)c2ccccc2)c2ccccc2n1` [SRI-31143], the Emax is reported as 69 ± 4%.

Same assay, conditions: read-out: NET Uptake IC50; mean ± S.D.; n = 3
For `Cc1cc2nccn2cc1-c1nc(NCC(c2ccccc2)c2ccccc2)c2ccccc2n1` [SRI-30827], the IC50 was 21 ± 7 nM.
`Cl.Fc1ccc2c(NCC(c3ccccc3)c3ccccc3)nc(-c3ccc4nccn4c3)nc2c1` [SRI-31034] was tested, and the IC50 was 94 ± 22 nM.
`Cc1cc2nccn2cc1-c1nc(NCC(c2ccccc2)c2ccc[nH]2)c2ccccc2n1` (stereo not drawn) [SRI-31040] gave an IC50 of 11 ± 4 nM.
For `Cc1cc2nccn2cc1-c1nc(NCC(c2ccccc2)c2ccncc2)c2ccccc2n1` (stereo not drawn) [SRI-31142], the IC50 was 17 ± 4 nM.
Compound `Cc1cc2nccn2cc1-c1nc(NCC(O)(c2ccccc2)c2ccccc2)c2ccccc2n1` [SRI-31143] has an IC50 of 16 ± 5 nM.
